For test [1], the target named is T1, β1 adreno receptor (rat hearts) (Rattus norvegicus, UniProt P18090).
T1 construct: receptor preparations from rat hearts (β1); from tissue; host or cells: rat heart membrane preparation
Put plainly: Affinity for β-adreno receptors: inhibition of 3H-CGP 12177 binding, receptor preparations from rat hearts (β1). The note with it: 200 pM 3H-CGP 12177. Here is the method:
(§1) 1. Affinity for β-adreno recectors
(§2) The inhibitory effect on the binding of ^3 H-CGP 12177 was tested on receptor preparations from rat hearts (β1) and rat lungs (β2). The binding assay was carried out with some modifications according to the method of Dammgen et al. (Drug. Res. 35: 383-390 (1985)). The incubation mixture contained aliquots of the membrane preparation in Tris buffer, increasing concentrations of the potential antagonist as well as 200 pM ^3 H-CGP 12177. The bound and free radioligands were separated after the incubation period by rapid filtration through glass fibre filters. The filter-bound radioactivity was determined in a β counter with a counting yield of about 52%. The non-specific binding was determined in the presence of 10^-5 M propranolol.

Test [2] addresses T2, β2 adreno receptor (rat lungs) (Rattus norvegicus, UniProt P10608).
T2 construct: rat lungs (β2); from tissue; host or cells: rat lung membrane preparation
Kind of test: Affinity for β-adreno receptors: inhibition of 3H-CGP 12177 binding, receptor preparations from rat lungs (β2). The note with it: 200 pM 3H-CGP 12177. Here is the method:
as §1, §2

In test [3] the test system is Guinea-pigs (Dunkin-Hartley-Pirbright, male). Put plainly: Cardiotonic effect: LV-dP/dtmax and heart rate in anaesthetised guinea-pigs. It counts as in vivo, guinea-pig. The note with it: after a dose of 3 mg/kg i.v., averages from 2 to 3 tests; for change in vivo at 3 mg/kg: Cavia porcellus, iv, read-out: Effects on LV-dP/dtmax % increase. The method, then:
(§3) Cardiotonic effect with antiadrenergic activity
(§4) Guinea-pigs (Dunkin-Hartley-Pirbright, male, 450-600 g) were anaesthetised with hexobarbital-sodium (150 mg/kg i.p.). After the animals had become unconscious, a tracheal cannula was inserted and the animals were pitched (van Meel, J. Pharmacol. Methods 31 (1): 1-11 (1985)). The animals were then immediately artificially respirated using a breathing pump. The left ventricular pressure (LVP) was measured with a Millar PR-249 catheter-tip manometer inserted into the left ventricle through the left carotid artery. This pressure signal was differentiated electronically (LV-dP/dtmax) and used as a parameter for inotropia. The arterial blood pressure was recorded by a cannula in the right carotid artery using a Bell & Howell pressure recorder. The heart rate was also measured. The substances were administered through a cannula in the jugular vein.
(§5) The test substances were administered to three animals cumulatively in four doses (0.1 to 3 mg/kg) and the effects on blood pressure, heart rate and LV-dP/dtmax were measured. Three minutes after the last dose of the test substance, isoprenalin was administered intravenously in increasing doses. In this way, a cumulative dose-activity correlation was obtained for isoprenalin in the presence of the test substance. The parameters measured were the increase in heart rate and the LV-dP/dtmax. These dose-activity curves were compared with standard curves for isoprenalin without the test substances. The shift to the right of the dose-activity curves for isoprenalin brought about by the test substances were determined graphically and corresponding pA2 values for the test substances were calculated. (see Tenakin in "Pharmacologic Analysis of Drug Receptor Interaction", Rawen Press 1987, pages 211-212).
(§6) The Table which follows contains the averages from 2 to 3 tests: […]

Test [4] in a line: Antiadrenergic activity: shift of isoprenalin dose-activity curves in guinea-pigs (pA2). It counts as in vivo, guinea-pig. The note with it: averages from 2 to 3 tests; for pA2 heart rate: against heart rate-increasing activity of isoprenalin; for pA2 inotropia: against inotropic activity of isoprenalin (LV-dP/dtmax). Here is the method: as §3, §4, §5, §6

Results on 14 compounds are retold here after patent publication US5135932A, “2-hydroxypropylamino-alkyl-benzimidazoly-5-yl derivatives and their use in the treatment of heart disease” (Dr. Karl Thomae GmbH, priority 1989, dated 1992).

In general, IC50 refers to the concentration that inhibits the measured activity by half. High values mean a need for much substance, low ones inhibition by little substance.

T2 sequence (P10608 whole entry): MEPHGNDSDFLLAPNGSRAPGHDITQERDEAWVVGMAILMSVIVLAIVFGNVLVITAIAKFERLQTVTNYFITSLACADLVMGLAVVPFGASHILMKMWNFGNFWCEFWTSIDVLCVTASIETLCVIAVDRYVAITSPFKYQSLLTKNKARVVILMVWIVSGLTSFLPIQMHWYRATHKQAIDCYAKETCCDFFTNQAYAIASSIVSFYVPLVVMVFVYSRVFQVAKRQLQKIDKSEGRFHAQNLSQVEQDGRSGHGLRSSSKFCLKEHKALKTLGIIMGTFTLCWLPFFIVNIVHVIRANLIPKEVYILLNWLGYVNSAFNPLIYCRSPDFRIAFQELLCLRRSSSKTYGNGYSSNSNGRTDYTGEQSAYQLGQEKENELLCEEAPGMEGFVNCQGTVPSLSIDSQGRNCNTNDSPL
T1 sequence (P18090 whole entry): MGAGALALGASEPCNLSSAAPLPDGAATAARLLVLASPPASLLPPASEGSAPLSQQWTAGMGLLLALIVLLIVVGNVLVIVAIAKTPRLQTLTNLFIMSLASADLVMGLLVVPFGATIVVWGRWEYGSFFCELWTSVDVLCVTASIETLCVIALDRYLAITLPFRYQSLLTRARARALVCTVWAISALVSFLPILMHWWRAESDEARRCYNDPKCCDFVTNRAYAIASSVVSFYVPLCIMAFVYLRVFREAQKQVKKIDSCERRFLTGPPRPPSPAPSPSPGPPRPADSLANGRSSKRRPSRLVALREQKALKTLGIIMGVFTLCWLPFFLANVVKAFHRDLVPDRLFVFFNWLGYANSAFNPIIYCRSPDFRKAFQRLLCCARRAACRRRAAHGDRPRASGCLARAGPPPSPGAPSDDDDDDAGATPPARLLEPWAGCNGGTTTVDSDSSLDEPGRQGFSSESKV

`O=C1CCC(c2ccc3c(c2)ncn3CCNCC(O)COc2ccc(CCOCC3CCC3)cc2)=NN1` (centres unmarked) [Substance A, 6-[1-[2-[3-(4-(2-cyclobutylmethoxy-ethyl)phenoxy)-2-hydroxy-propylamino]ethyl]benzimidazol-5-yl]-4,5-dihydro-3(2H)-pyridazinone] had an IC50 in test [1] of 0.026 µM. Besides, the IC50 in test [2] was 0.94 µM. Further, in test [3], the change in vivo at 3 mg/kg is 50% and the “Effect on heart rate in beats per minute” value is given as -23 beats per minute. In test [4], the pA2 heart rate turned out to be 8.20 and the pA2 inotropia stood at 6.30.

`O=C1CCC(c2ccc3c(c2)ncn3CCNCC(O)COc2ccc(CCOCC3CC3)cc2)=NN1` (centres unmarked) [Substance B, 6-[1-[2-[3-(4-(2-cyclopropylmethoxy-ethyl)phenoxy)-2-hydroxy-propylamino]ethyl]benzimidazol-5-yl]-4,5-dihydro-3(2H)-pyridazinone] had a concentration for half-maximal inhibition (IC50) in test [1] of 0.034 µM. The IC50 in test [2] stood at 2.3 µM. Further, in test [3], the change in vivo at 3 mg/kg turned out to be 51% and the “Effect on heart rate in beats per minute” value is given as -47 beats per minute. Further, in test [4], the pA2 heart rate came out at 6.95 and the pA2 inotropia was determined as 6.83.

In the case of `O=C1CCC(c2ccc(OCCNCC(O)COc3ccc(CCOCC4CC4)cc3)cc2)=NN1` (centres unmarked) [Substance C, 6-[4-[2-[3-(4-(2-cyclopropylmethoxy-ethyl)phenoxy)-2-hydroxy-propylamino]ethoxy]phenyl]-4,5-dihydro-3(2H)-pyridazinone], the half-inhibitory concentration (IC50) in test [1] turned out to be 0.029 µM. This compound also gave an IC50 in test [2] of 1.2 µM. Moreover, in test [3], the change in vivo at 3 mg/kg was found to be 25% and the “Effect on heart rate in beats per minute” value is -51 beats per minute. For the same compound, in test [4], the pA2 heart rate is 7.22 and the pA2 inotropia came out at 6.76.

In test [1], `O=c1ccc(-c2ccc(OCCNCC(O)COc3ccc(CCOCC4CC4)cc3)cc2)n[nH]1` (centres unmarked) [Substance D, 6-[4-[2-[3-(4-(2-cyclopropylmethoxyethyl)phenoxy)-2-hydroxy-propylamino]ethoxy]phenyl]-3(2H)-pyridazinone] returned an IC50 of 0.022 µM. In test [2], the 50% inhibitory concentration (IC50) came out at 1 µM. In addition, in test [3], the change in vivo at 3 mg/kg is 51% and the “Effect on heart rate in beats per minute” value is on record as -49 beats per minute. Besides, in test [4], the pA2 heart rate amounted to 7.24 and the pA2 inotropia turned out to be 6.67.

`O=C1CCC(c2ccc(OCCNCC(O)COc3ccc(CCOCC4CCC4)cc3)cc2)=NN1` (centres unmarked) [Substance E, 6-[4-[2-[3-(4-(2-cyclobutylmethoxy-ethyl)phenoxy)-2-hydroxy-propylamino]ethoxy]phenyl]-4,5-dihydro-3(2H)-pyridazinone]: the IC50 in test [1] is 0.015 µM. In addition, the IC50 in test [2] was found to be 1.1 µM. Further, in test [3], the change in vivo at 3 mg/kg was found to be 49% and the “Effect on heart rate in beats per minute” value is reported as -71 beats per minute. In addition, in test [4], the pA2 heart rate amounted to 7.23 and the pA2 inotropia amounted to 6.19.

`CC(C)OCCOCc1ccc(OCC(O)CNCCOc2ccc(C3=NNC(=O)CC3)cc2)cc1` (centres unmarked) [Substance F, 6-[4-[2-[3-(4-((2-isopropoxyethoxy)methyl)phenoxy)-2-hydroxy-propylamino]ethoxy]phenyl]-4,5-dihydro-3(2H)-pyridazinone]: the concentration for half-maximal inhibition (IC50) in test [1] was 0.024 µM. This compound also came in with an IC50 in test [2] of 7.2 µM. Also, in test [3], the change in vivo at 3 mg/kg came to 37% and the “Effect on heart rate in beats per minute” value is -94 beats per minute. Moreover, in test [4], the pA2 heart rate turned out to be 6.96 and the pA2 inotropia was 7.14.

With `CC(C)OCCOCc1ccc(OCC(O)CNCCOc2ccc(-c3ccc(=O)[nH]n3)cc2)cc1` (centres unmarked) [Substance G, 6-[4-[2-[3-(4-(2-isopropoxyethoxymethyl)phenoxy)-2-hydroxypropylamino]ethoxy]phenyl]-3(2H)-pyridazinone], in test [1], the concentration for half-maximal inhibition (IC50) worked out at 0.053 µM. The compound also yielded a 50% inhibitory concentration (IC50) in test [2] of 4.4 µM. Besides, in test [3], the change in vivo at 3 mg/kg came to 38% and the “Effect on heart rate in beats per minute” value is -36 beats per minute. For the same compound, in test [4], the pA2 heart rate is on record as 6.38 and the pA2 inotropia turned out to be 6.32.

Turning to `CC(C)COCCc1ccc(OCC(O)CNCCCn2cnc3cc(C4=NNC(=O)CC4)ccc32)cc1` (centres unmarked) [Substance H], the 50% inhibitory concentration (IC50) in test [1] came to 0.01 µM. The same compound gave an IC50 in test [2] of 0.019 µM. In test [3], the change in vivo at 3 mg/kg came to 10% and the “Effect on heart rate in beats per minute” value was -90 beats per minute. Further, in test [4], the pA2 heart rate is listed as > 9.0 and the pA2 inotropia came out at 8.28.

In turn, `CC(C)COCCc1ccc(OCC(O)CNC(C)(C)Cn2cnc3cc(C4=NNC(=O)CC4)ccc32)cc1` (centres unmarked) [Substance I, 6-[1-[2-[3-(4-(2-isobutoxyethyl)phenoxy)-2-hydroxypropylamino]-2,2-dimethyl-ethyl]benzimidazol-5-yl]-4,5-dihydro-3(2H)-pyridazinone] displayed a half-inhibitory concentration (IC50) in test [1] of 0.012 µM. This compound registered an IC50 in test [2] of 0.065 µM. In test [3], the change in vivo at 3 mg/kg was determined as 58% and the “Effect on heart rate in beats per minute” value is reported as -59 beats per minute. In test [4], the pA2 heart rate is listed as 7.89 and the pA2 inotropia came out at 7.17.

On to `CC(C)OCCOCc1ccc(OCC(O)CNCCCOc2ccc(C3=NNC(=O)CC3)cc2Cl)cc1` (centres unmarked) [Substance K, 6-[4-[3-[3-(4-(2-isopropoxyethoxy-methyl)phenoxy)-2-hydroxy-propylamino]propoxy]-3-chloro-phenyl]-4,5-dihydro-3(2H)-pyridazinone], for which the IC50 in test [1] amounted to 0.01 µM. In test [2], the 50% inhibitory concentration (IC50) amounted to 0.35 µM. Further, in test [3], the change in vivo at 3 mg/kg turned out to be 11% and the “Effect on heart rate in beats per minute” value was -121 beats per minute. In test [4], the pA2 heart rate came out at 7.52 and the pA2 inotropia was determined as 6.56.

Consider `CC(C)OCCOCc1ccc(OCC(O)CNCCOc2ccc(C3=NNC(=O)CC3)cc2Cl)cc1` (centres unmarked) [Substance L, 6-[4-[2-[3-(4-(2-isopropoxyethoxy-methyl)phenoxy)-2-hydroxy-propylamino]ethoxy]-3-chloro-phenyl]-4,5-dihydro-3(2H)-pyridazinone], for which the IC50 in test [1] is 0.0076 µM. Moreover, the IC50 in test [2] was found to be 0.6 µM. Moreover, in test [3], the change in vivo at 3 mg/kg came out at 66% and the “Effect on heart rate in beats per minute” value is given as -51 beats per minute. In test [4], the pA2 heart rate stood at 6.77 and the pA2 inotropia came to 6.23.

In test [1], `Cc1cc(C2=NNC(=O)CC2)ccc1OCCNCC(O)COc1ccc(CCOCC2CC2)cc1` (centres unmarked) [Substance M, 6-[4-[2-[3-(4-(2-cyclopropylmethoxy-ethyl)phenoxy)-2-hydroxy-propylamino]ethoxy]-3-methyl-phenyl]-4,5-dihydro-3(2H)-pyridazinone] had a half-inhibitory concentration (IC50) of 0.0005 µM. Also, the IC50 in test [2] worked out at 0.1 µM. Besides, in test [3], the change in vivo at 3 mg/kg came out at 51% and the “Effect on heart rate in beats per minute” value is listed as -64 beats per minute. Moreover, in test [4], the pA2 heart rate is listed as 8.20 and the pA2 inotropia was 7.05.

`Cc1cc(C2=NNC(=O)CC2)ccc1OCCNCC(O)COc1ccc(COCCOC(C)C)cc1` (centres unmarked) [Substance N, 6-[4-[2-[3-(4-(2-isopropoxyethoxy-methyl)phenoxy)-2-hydroxy-propylamino]ethoxy]-3-methyl-phenyl]-4,5-dihydro-3(2H)-pyridazinone] yielded a concentration for half-maximal inhibition (IC50) in test [1] of 0.0026 µM. The compound further displayed an IC50 in test [2] of 0.52 µM. In test [3], the change in vivo at 3 mg/kg worked out at 34% and the “Effect on heart rate in beats per minute” value is on record as -94 beats per minute. Further, in test [4], the pA2 heart rate was 8.34 and the pA2 inotropia was determined as 7.34.

Take `Cc1cc(-c2ccc(=O)[nH]n2)ccc1OCCNCC(O)COc1ccc(COCCOC(C)C)cc1` (centres unmarked) [Substance Q, 6-[4-[2-[3-(4-(2-isopropoxyethoxy-methyl)phenoxy)-2-hydroxy-propylamino]ethoxy]-3-methyl-phenyl]-3(2H)-pyridazinone]: the results for the IC50 in test [1] and in test [2] were 0.002 µM and 0.21 µM, respectively.
